Test results from the kinase profiling compilation of Christmann-Franck et al. (2016).

Biological target: MAPK12 (human) (UniProt P53778)
Assay: KINOMEscan competition binding
Settings: compound 10.0 µM

Chain of MAPK12 (human) (P53778 whole entry, looked up): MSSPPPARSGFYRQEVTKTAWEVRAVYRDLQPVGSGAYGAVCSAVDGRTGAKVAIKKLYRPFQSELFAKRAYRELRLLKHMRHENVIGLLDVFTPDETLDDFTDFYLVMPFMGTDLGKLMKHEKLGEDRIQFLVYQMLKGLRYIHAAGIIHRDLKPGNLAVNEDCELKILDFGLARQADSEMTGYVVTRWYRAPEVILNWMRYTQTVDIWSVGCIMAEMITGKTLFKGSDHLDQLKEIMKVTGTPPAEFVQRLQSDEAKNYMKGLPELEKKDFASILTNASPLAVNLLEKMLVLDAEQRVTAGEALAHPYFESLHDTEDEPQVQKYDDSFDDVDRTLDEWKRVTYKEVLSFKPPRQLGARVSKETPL

kinase still bound, per cent of control [%]	SMILES
40	COc1cc(N2CCC(N3CCN(C)CC3)CC2)ccc1Nc1ncc(Cl)c(Nc2ccccc2S(=O)(=O)C(C)C)n1
0	CCN1CCN(Cc2ccc(NC(=O)c3ccc(C)c(Oc4ccnc5[nH]ccc45)c3)cc2C(F)(F)F)CC1

SMILES	kinase still bound, per cent of control [%]
CCOc1cc(N2CCC(N3CCCCC3)CC2)ccc1Nc1nc(Nc2ccccc2S(=O)(=O)C(C)C)c2cn[nH]c2n1	100

Biological target: CSNK2A2 (human) (UniProt P19784)
Sequence (P19784 whole entry, looked up): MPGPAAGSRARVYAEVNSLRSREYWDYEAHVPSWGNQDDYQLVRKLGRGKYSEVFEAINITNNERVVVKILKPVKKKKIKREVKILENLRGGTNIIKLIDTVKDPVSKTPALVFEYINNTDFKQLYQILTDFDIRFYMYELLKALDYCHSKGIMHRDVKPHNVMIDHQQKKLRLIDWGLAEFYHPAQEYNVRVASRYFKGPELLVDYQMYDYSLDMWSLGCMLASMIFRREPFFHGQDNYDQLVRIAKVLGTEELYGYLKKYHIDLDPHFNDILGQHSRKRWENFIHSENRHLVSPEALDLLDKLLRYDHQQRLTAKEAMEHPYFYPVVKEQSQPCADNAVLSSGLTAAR
Assay: KINOMEscan competition binding
Settings: compound 10.0 µM

SMILES	kinase still bound, per cent of control [%]
CCN1CCN(Cc2ccc(NC(=O)c3ccc(C)c(/C=C/c4cnc(Nc5cc(N6CCNCC6)nc(C)n5)cn4)c3)cc2C(F)(F)F)CC1	72
COc1cc(N2CCC(N3CCN(C)CC3)CC2)ccc1Nc1ncc(Cl)c(Nc2ccccc2S(=O)(=O)C(C)C)n1	40
CCOc1cc(N2CCC(N3CCCCC3)CC2)ccc1Nc1nc(Nc2ccccc2S(=O)(=O)C(C)C)c2cn[nH]c2n1	94

Biological target: CSNK1D (human) (UniProt P48730)
Sequence (P48730 whole entry, looked up): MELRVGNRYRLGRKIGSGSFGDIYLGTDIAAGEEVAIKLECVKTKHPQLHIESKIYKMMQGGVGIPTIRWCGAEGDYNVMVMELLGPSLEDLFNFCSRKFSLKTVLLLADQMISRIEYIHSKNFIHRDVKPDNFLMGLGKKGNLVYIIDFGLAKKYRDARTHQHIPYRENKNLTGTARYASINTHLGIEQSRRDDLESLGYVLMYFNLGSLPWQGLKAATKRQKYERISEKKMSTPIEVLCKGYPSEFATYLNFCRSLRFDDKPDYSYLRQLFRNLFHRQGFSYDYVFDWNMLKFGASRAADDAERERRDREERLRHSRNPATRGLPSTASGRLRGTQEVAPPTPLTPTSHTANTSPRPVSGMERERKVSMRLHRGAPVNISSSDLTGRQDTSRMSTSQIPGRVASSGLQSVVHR
Assay: KINOMEscan competition binding
Settings: compound 10.0 µM

SMILES	kinase still bound, per cent of control [%]
CCN1CCN(Cc2ccc(NC(=O)c3ccc(C)c(/C=C/c4cnc(Nc5cc(N6CCNCC6)nc(C)n5)cn4)c3)cc2C(F)(F)F)CC1	95
COc1cc(N2CCC(N3CCN(C)CC3)CC2)ccc1Nc1ncc(Cl)c(Nc2ccccc2S(=O)(=O)C(C)C)n1	40
CCOc1cc(N2CCC(N3CCCCC3)CC2)ccc1Nc1nc(Nc2ccccc2S(=O)(=O)C(C)C)c2cn[nH]c2n1	92

Biological target: STK25 (human) (UniProt O00506)
Sequence (O00506 whole entry, looked up): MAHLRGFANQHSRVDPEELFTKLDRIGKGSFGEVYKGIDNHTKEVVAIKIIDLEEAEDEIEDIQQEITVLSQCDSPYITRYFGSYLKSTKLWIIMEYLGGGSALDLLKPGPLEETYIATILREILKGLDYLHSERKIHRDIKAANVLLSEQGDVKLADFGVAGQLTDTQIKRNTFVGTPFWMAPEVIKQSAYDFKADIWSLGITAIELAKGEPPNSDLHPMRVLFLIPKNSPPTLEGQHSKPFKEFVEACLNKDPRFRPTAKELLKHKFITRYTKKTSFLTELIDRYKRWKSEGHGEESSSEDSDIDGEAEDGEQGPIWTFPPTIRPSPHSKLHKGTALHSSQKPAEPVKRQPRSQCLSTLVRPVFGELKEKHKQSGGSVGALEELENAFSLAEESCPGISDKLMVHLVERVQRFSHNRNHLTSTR
Assay: KINOMEscan competition binding
Settings: compound 10.0 µM

SMILES	kinase still bound, per cent of control [%]
CCN1CCN(Cc2ccc(NC(=O)c3ccc(C)c(/C=C/c4cnc(Nc5cc(N6CCNCC6)nc(C)n5)cn4)c3)cc2C(F)(F)F)CC1	35
COc1cc(N2CCC(N3CCN(C)CC3)CC2)ccc1Nc1ncc(Cl)c(Nc2ccccc2S(=O)(=O)C(C)C)n1	40
CCOc1cc(N2CCC(N3CCCCC3)CC2)ccc1Nc1nc(Nc2ccccc2S(=O)(=O)C(C)C)c2cn[nH]c2n1	95

Biological target: STK16 (human) (UniProt O75716)
Sequence (O75716 whole entry, looked up): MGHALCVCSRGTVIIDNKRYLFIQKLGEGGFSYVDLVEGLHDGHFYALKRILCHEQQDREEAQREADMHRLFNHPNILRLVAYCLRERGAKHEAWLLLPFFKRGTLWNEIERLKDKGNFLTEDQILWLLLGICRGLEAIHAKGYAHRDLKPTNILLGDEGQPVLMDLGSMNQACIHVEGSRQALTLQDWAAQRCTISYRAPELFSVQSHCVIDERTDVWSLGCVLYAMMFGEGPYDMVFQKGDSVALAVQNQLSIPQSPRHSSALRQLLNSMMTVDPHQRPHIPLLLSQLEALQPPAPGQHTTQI
Assay: KINOMEscan competition binding
Settings: compound 10.0 µM

SMILES	kinase still bound, per cent of control [%]
CCN1CCN(Cc2ccc(NC(=O)c3ccc(C)c(/C=C/c4cnc(Nc5cc(N6CCNCC6)nc(C)n5)cn4)c3)cc2C(F)(F)F)CC1	100
COc1cc(N2CCC(N3CCN(C)CC3)CC2)ccc1Nc1ncc(Cl)c(Nc2ccccc2S(=O)(=O)C(C)C)n1	2.8
CCOc1cc(N2CCC(N3CCCCC3)CC2)ccc1Nc1nc(Nc2ccccc2S(=O)(=O)C(C)C)c2cn[nH]c2n1	76

Biological target: FLT1 (human) (UniProt P17948)
Assay: KINOMEscan competition binding
Settings: compound 10.0 µM

SMILES	kinase still bound, per cent of control [%]
CCN1CCN(Cc2ccc(NC(=O)c3ccc(C)c(/C=C/c4cnc(Nc5cc(N6CCNCC6)nc(C)n5)cn4)c3)cc2C(F)(F)F)CC1	27
COc1cc(N2CCC(N3CCN(C)CC3)CC2)ccc1Nc1ncc(Cl)c(Nc2ccccc2S(=O)(=O)C(C)C)n1	2.8
CCOc1cc(N2CCC(N3CCCCC3)CC2)ccc1Nc1nc(Nc2ccccc2S(=O)(=O)C(C)C)c2cn[nH]c2n1	100
CCN1CCN(Cc2ccc(NC(=O)c3ccc(C)c(Oc4ccnc5[nH]ccc45)c3)cc2C(F)(F)F)CC1	1.6

Biological target: TLK2 (human) (UniProt Q86UE8)
Sequence (Q86UE8 whole entry, looked up): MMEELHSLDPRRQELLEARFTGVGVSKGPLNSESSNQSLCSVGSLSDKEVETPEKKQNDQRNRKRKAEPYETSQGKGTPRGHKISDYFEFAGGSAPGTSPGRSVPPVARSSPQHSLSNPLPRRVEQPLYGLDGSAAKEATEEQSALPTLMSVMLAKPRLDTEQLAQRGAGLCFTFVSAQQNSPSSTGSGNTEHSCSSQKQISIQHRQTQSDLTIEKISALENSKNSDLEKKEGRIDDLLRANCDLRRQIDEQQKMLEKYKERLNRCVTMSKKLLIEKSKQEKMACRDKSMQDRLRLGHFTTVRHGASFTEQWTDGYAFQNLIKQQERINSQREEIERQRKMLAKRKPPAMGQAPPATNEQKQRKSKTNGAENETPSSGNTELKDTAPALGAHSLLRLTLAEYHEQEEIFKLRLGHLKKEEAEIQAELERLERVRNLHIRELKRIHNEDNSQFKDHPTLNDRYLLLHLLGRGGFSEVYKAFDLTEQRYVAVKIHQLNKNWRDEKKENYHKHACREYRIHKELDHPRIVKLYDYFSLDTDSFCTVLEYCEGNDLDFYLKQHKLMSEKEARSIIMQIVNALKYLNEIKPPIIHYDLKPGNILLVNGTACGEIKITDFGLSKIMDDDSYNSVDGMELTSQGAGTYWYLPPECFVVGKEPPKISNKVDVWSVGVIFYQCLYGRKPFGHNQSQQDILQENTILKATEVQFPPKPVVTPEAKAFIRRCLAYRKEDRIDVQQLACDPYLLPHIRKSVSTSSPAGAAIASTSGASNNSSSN
Assay: KINOMEscan competition binding
Settings: compound 10.0 µM

SMILES	kinase still bound, per cent of control [%]
CCN1CCN(Cc2ccc(NC(=O)c3ccc(C)c(/C=C/c4cnc(Nc5cc(N6CCNCC6)nc(C)n5)cn4)c3)cc2C(F)(F)F)CC1	100
COc1cc(N2CCC(N3CCN(C)CC3)CC2)ccc1Nc1ncc(Cl)c(Nc2ccccc2S(=O)(=O)C(C)C)n1	40
CCOc1cc(N2CCC(N3CCCCC3)CC2)ccc1Nc1nc(Nc2ccccc2S(=O)(=O)C(C)C)c2cn[nH]c2n1	100

Biological target: GAK (human) (UniProt O14976)
Sequence (O14976 whole entry, looked up): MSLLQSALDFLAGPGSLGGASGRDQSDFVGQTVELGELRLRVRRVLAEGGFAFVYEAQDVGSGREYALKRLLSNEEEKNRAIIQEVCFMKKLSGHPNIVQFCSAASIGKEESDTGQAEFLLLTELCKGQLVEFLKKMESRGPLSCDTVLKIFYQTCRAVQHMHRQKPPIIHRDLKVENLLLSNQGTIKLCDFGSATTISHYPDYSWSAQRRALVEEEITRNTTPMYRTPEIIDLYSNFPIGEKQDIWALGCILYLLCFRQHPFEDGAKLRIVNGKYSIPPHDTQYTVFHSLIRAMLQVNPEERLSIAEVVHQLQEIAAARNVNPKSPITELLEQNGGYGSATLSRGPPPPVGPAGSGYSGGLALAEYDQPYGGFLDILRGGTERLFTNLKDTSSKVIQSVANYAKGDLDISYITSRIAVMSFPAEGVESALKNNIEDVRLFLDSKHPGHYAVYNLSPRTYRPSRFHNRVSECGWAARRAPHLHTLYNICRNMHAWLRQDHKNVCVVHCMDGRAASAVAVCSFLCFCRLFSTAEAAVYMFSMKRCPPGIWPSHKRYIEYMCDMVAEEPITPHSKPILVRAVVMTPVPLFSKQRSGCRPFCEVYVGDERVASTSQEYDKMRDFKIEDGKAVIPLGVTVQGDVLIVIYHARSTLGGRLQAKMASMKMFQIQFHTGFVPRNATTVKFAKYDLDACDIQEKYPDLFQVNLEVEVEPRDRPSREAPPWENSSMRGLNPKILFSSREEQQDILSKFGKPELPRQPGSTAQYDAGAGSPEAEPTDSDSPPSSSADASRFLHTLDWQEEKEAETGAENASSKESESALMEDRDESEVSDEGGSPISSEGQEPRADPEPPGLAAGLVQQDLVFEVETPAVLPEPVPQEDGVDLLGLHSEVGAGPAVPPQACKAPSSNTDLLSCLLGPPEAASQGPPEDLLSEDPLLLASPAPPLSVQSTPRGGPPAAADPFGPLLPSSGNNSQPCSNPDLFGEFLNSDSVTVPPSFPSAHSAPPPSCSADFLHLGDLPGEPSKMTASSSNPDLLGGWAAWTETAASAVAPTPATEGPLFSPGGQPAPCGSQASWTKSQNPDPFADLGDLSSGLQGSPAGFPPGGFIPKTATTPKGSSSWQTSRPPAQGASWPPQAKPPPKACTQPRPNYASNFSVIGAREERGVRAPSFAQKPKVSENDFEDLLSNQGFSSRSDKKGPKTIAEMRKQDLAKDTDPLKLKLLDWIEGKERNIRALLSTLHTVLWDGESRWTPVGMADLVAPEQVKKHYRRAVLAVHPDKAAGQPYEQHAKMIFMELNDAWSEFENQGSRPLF
Assay: KINOMEscan competition binding
Settings: compound 10.0 µM

SMILES	kinase still bound, per cent of control [%]
CCN1CCN(Cc2ccc(NC(=O)c3ccc(C)c(/C=C/c4cnc(Nc5cc(N6CCNCC6)nc(C)n5)cn4)c3)cc2C(F)(F)F)CC1	51
COc1cc(N2CCC(N3CCN(C)CC3)CC2)ccc1Nc1ncc(Cl)c(Nc2ccccc2S(=O)(=O)C(C)C)n1	0.1
CCOc1cc(N2CCC(N3CCCCC3)CC2)ccc1Nc1nc(Nc2ccccc2S(=O)(=O)C(C)C)c2cn[nH]c2n1	6
CCN1CCN(Cc2ccc(NC(=O)c3ccc(C)c(Oc4ccnc5[nH]ccc45)c3)cc2C(F)(F)F)CC1	31

Biological target: MKNK2 (human) (UniProt Q9HBH9)
Sequence (Q9HBH9 whole entry, looked up): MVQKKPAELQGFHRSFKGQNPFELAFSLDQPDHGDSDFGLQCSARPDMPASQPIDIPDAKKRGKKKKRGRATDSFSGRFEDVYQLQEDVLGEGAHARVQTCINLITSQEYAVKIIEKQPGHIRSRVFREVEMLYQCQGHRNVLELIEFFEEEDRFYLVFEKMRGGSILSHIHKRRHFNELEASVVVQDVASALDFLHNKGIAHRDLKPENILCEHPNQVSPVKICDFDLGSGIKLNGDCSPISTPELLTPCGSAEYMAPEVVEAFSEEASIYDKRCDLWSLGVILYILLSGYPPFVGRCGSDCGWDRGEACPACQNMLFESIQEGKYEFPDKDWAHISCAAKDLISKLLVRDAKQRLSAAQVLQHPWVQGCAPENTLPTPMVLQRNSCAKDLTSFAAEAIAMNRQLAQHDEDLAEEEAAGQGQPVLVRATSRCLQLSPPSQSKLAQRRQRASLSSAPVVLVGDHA
Assay: KINOMEscan competition binding
Settings: compound 10.0 µM

SMILES	kinase still bound, per cent of control [%]
CCN1CCN(Cc2ccc(NC(=O)c3ccc(C)c(/C=C/c4cnc(Nc5cc(N6CCNCC6)nc(C)n5)cn4)c3)cc2C(F)(F)F)CC1	18
COc1cc(N2CCC(N3CCN(C)CC3)CC2)ccc1Nc1ncc(Cl)c(Nc2ccccc2S(=O)(=O)C(C)C)n1	1.4
CCOc1cc(N2CCC(N3CCCCC3)CC2)ccc1Nc1nc(Nc2ccccc2S(=O)(=O)C(C)C)c2cn[nH]c2n1	100
CCN1CCN(Cc2ccc(NC(=O)c3ccc(C)c(Oc4ccnc5[nH]ccc45)c3)cc2C(F)(F)F)CC1	4.2

Biological target: PHKG1 (human) (UniProt Q16816)
Sequence (Q16816 whole entry, looked up): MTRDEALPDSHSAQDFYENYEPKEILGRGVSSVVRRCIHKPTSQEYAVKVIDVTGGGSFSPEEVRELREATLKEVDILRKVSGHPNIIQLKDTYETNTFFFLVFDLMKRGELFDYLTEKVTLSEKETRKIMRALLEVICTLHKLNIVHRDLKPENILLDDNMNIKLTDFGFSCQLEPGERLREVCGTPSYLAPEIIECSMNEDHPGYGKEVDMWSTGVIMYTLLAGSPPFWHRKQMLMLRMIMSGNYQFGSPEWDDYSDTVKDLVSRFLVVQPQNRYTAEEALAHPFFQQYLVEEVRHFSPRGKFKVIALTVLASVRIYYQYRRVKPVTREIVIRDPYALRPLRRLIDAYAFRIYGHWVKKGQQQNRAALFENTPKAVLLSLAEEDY
Assay: KINOMEscan competition binding
Settings: compound 10.0 µM

SMILES	kinase still bound, per cent of control [%]
CCN1CCN(Cc2ccc(NC(=O)c3ccc(C)c(/C=C/c4cnc(Nc5cc(N6CCNCC6)nc(C)n5)cn4)c3)cc2C(F)(F)F)CC1	100
COc1cc(N2CCC(N3CCN(C)CC3)CC2)ccc1Nc1ncc(Cl)c(Nc2ccccc2S(=O)(=O)C(C)C)n1	0.1
CCOc1cc(N2CCC(N3CCCCC3)CC2)ccc1Nc1nc(Nc2ccccc2S(=O)(=O)C(C)C)c2cn[nH]c2n1	24

Biological target: TXK (human) (UniProt P42681)
Assay: KINOMEscan competition binding
Settings: compound 10.0 µM

SMILES	kinase still bound, per cent of control [%]
CCN1CCN(Cc2ccc(NC(=O)c3ccc(C)c(/C=C/c4cnc(Nc5cc(N6CCNCC6)nc(C)n5)cn4)c3)cc2C(F)(F)F)CC1	4
